According to PMC6366416, “Synthesis and in vitro anticancer activity of certain novel 1-(2-methyl-6-arylpyridin-3-yl)-3-phenylureas as apoptosis-inducing agents” (Journal of Enzyme Inhibition and Medicinal Chemistry, 2019):

Assays:
[1] = system: NCI-H226; experiment: NCI one-dose SRB growth inhibition; type: cell-based; settings: Homo sapiens, Non-Small Cell Lung Cancer, 48 h, read-out: GI% NCI-H226
Procedure: (§1) The antitumor assay was performed according to the protocol of the Drug Evaluation Branch, NCI, Bethesda[24–26]. A 48 h drug exposure protocol was adopted, and sulforhodamine B (SRB) assay[27] was utilized to assess the cell growth and viability, as reported earlier[17]^,[28].
(§2) The structures of all the newly synthesized pyridines 5a–l were submitted to the National Cancer Institute (NCI) Developmental Therapeutic Program (www.dtp.nci.nih.gov). […] Nine different types of cancer were tested in this assay: colon, ovarian, prostate, leukemia, melanoma, CNS, renal, breast and lung cancers. A 48 h drug exposure protocol was adopted, and sulforhodamine B (SRB) assay[27] was utilized to assess the cell growth and viability.

[2] = system: SK-MEL-2; experiment: NCI one-dose SRB growth inhibition; type: cell-based; settings: Homo sapiens, Melanoma, 48 h, read-out: GI% SK-MEL-2
Procedure: as §1, §2

[3] = system: HL-60(TB); experiment: NCI one-dose SRB growth inhibition; type: cell-based; settings: Homo sapiens, Leukemia, 48 h, read-out: GI% HL-60(TB)
Procedure: as §1, §2

[4] = system: NCI/ADR-RES; experiment: NCI one-dose SRB growth inhibition; type: cell-based; settings: Homo sapiens, Ovarian Cancer, 48 h, read-out: GI% NCI/ADR-RES
Procedure: as §1, §2

[5] = system: HS 578T; experiment: NCI one-dose SRB growth inhibition; type: cell-based; settings: Homo sapiens, Breast Cancer, 48 h, read-out: GI% HS 578T
Procedure: as §1, §2

[6] = system: UACC-257; experiment: NCI one-dose SRB growth inhibition; type: cell-based; settings: Homo sapiens, UACC-257, read-out: GI% UACC-257, Melanoma, 48 h
Procedure: as §1, §2

[7] = system: SW-620; experiment: NCI one-dose SRB growth inhibition; type: cell-based; settings: Homo sapiens, Colon Cancer, 48 h, read-out: GI% SW-620
Procedure: as §1, §2

[8] = system: DU-145; experiment: NCI one-dose SRB growth inhibition; type: cell-based; settings: Homo sapiens, Prostate, 48 h, read-out: GI% DU-145
Procedure: as §1, §2

[9] = system: HT29; experiment: NCI one-dose SRB growth inhibition; type: cell-based; settings: Homo sapiens, HT-29, 48 h, Colon Cancer, read-out: GI% HT29
Procedure: as §1, §2

[10] = system: NCI-H322M; experiment: NCI one-dose SRB growth inhibition; type: cell-based; settings: Homo sapiens, Non-Small Cell Lung Cancer, 48 h, read-out: GI% NCI-H322M
Procedure: as §1, §2

[11] = system: SF-295; experiment: NCI one-dose SRB growth inhibition; type: cell-based; settings: Homo sapiens, CNS Cancer, 48 h, read-out: GI% SF-295
Procedure: as §1, §2

[12] = system: SK-MEL-5; experiment: NCI one-dose SRB growth inhibition; type: cell-based; settings: Homo sapiens, Melanoma, 48 h, read-out: GI% SK-MEL-5
Procedure: as §1, §2

[13] = system: 786-0; experiment: NCI one-dose SRB growth inhibition; type: cell-based; settings: Homo sapiens, Renal Cancer, 48 h, read-out: GI% 786-0
Procedure: as §1, §2

[14] = system: MOLT-4; experiment: NCI one-dose SRB growth inhibition; type: cell-based; settings: Homo sapiens, Leukemia, 48 h, read-out: GI% MOLT-4
Procedure: as §1, §2

[15] = system: HCT-15; experiment: NCI one-dose SRB growth inhibition; type: cell-based; settings: Homo sapiens, HCT-15, 48 h, Colon Cancer, read-out: GI% HCT-15
Procedure: as §1, §2

[16] = system: SK-OV-3; experiment: NCI one-dose SRB growth inhibition; type: cell-based; settings: Homo sapiens, Ovarian Cancer, 48 h, read-out: GI% SK-OV-3
Procedure: as §1, §2

[17] = system: UO-31; experiment: NCI one-dose SRB growth inhibition; type: cell-based; settings: Homo sapiens, Renal Cancer, 48 h, read-out: GI% UO-31
Procedure: as §1, §2

[18] = system: OVCAR-5; experiment: NCI one-dose SRB growth inhibition; type: cell-based; settings: Homo sapiens, Ovarian Cancer, 48 h, read-out: GI% OVCAR-5
Procedure: as §1, §2

[19] = system: UACC-62; experiment: NCI one-dose SRB growth inhibition; type: cell-based; settings: Homo sapiens, UACC-62, 48 h, Melanoma, read-out: GI% UACC-62
Procedure: as §1, §2

[20] = system: NCI-H522; experiment: NCI one-dose SRB growth inhibition; type: cell-based; settings: Homo sapiens, NCI-H522, 48 h, Non-Small Cell Lung Cancer, read-out: GI% NCI-H522
Procedure: as §1, §2

[21] = system: MCF7; experiment: NCI one-dose SRB growth inhibition; type: cell-based; settings: Homo sapiens, Breast Cancer, 48 h, read-out: GI% MCF7
Procedure: as §1, §2

[22] = system: EKVX; experiment: NCI one-dose SRB growth inhibition; type: cell-based; settings: Homo sapiens, Non-Small Cell Lung Cancer, 48 h, read-out: GI% EKVX
Procedure: as §1, §2

[23] = system: LOX IMVI; experiment: NCI one-dose SRB growth inhibition; type: cell-based; settings: Homo sapiens, Melanoma, 48 h, read-out: GI% LOX IMVI
Procedure: as §1, §2

[24] = system: COLO 205; experiment: NCI one-dose SRB growth inhibition; type: cell-based; settings: Homo sapiens, Colon Cancer, 48 h, read-out: GI% COLO 205
Procedure: as §1, §2

[25] = system: NCI-H460; experiment: NCI one-dose SRB growth inhibition; type: cell-based; settings: Homo sapiens, Non-Small Cell Lung Cancer, 48 h, read-out: GI% NCI-H460
Procedure: as §1, §2

[26] = system: OVCAR-3; experiment: NCI one-dose SRB growth inhibition; type: cell-based; settings: Homo sapiens, OVCAR-3, 48 h, Ovarian Cancer, read-out: GI% OVCAR-3
Procedure: as §1, §2

[27] = system: NCI-H23; experiment: NCI one-dose SRB growth inhibition; type: cell-based; settings: Homo sapiens, Non-Small Cell Lung Cancer, 48 h, read-out: GI% NCI-H23
Procedure: as §1, §2

[28] = system: HOP-92; experiment: NCI one-dose SRB growth inhibition; type: cell-based; settings: Homo sapiens, Non-Small Cell Lung Cancer, 48 h, read-out: GI% HOP-92
Procedure: as §1, §2

[29] = system: A498; experiment: NCI one-dose SRB growth inhibition; type: cell-based; settings: Homo sapiens, Renal Cancer, 48 h, read-out: GI% A498
Procedure: as §1, §2

[30] = system: RPMI-8226; experiment: NCI one-dose SRB growth inhibition; type: cell-based; settings: Homo sapiens, RPMI-8226, 48 h, Leukemia, read-out: GI% RPMI-8226
Procedure: as §1, §2

[31] = system: SR; experiment: NCI one-dose SRB growth inhibition; type: cell-based; settings: Homo sapiens, 48 h, Leukemia, read-out: GI% SR
Procedure: as §1, §2

[32] = system: 60 cancer cell lines (NCI, USA); experiment: NCI one-dose SRB assay, whole panel; type: cell-based, human; settings: 10 μM; for Sensitive cell lines no.: cell lines with GI% higher than 10%
Procedure: as §1, §2

Cc1nc(-c2ccc(F)cc2)ccc1NC(=O)Nc1cccc(C(F)(F)F)c1 [Compound 5a, 1-(6-(4-Fluorophenyl)-2-methylpyridin-3-yl)-3-(3-(trifluoromethyl)phenyl)urea]
melting point: 223 to 225 °C | inhibition at 10 µM [1]: 18% | inhibition at 10 µM [2]: < 10% | inhibition at 10 µM [3]: 11% | inhibition at 10 µM [4]: 20% | inhibition at 10 µM [5]: < 10% | inhibition at 10 µM [6]: 38% | inhibition at 10 µM [7]: < 10% | inhibition at 10 µM [8]: 11% | inhibition at 10 µM [9]: > 40% | inhibition at 10 µM [10]: 15% | inhibition at 10 µM [11]: 17% | inhibition at 10 µM [12]: 32% | inhibition at 10 µM [13]: < 10% | inhibition at 10 µM [14]: 33% | inhibition at 10 µM [15]: > 40% | inhibition at 10 µM [16]: 13% | inhibition at 10 µM [17]: 15% | inhibition at 10 µM [18]: < 10% | inhibition at 10 µM [19]: > 40% | inhibition at 10 µM [20]: > 40% | inhibition at 10 µM [21]: 30% | inhibition at 10 µM [22]: 17% | inhibition at 10 µM [23]: 37% | inhibition at 10 µM [24]: < 10% | inhibition at 10 µM [25]: 34% | inhibition at 10 µM [26]: > 40% | inhibition at 10 µM [27]: 24% | inhibition at 10 µM [28]: < 10% | inhibition at 10 µM [29]: < 10% | inhibition at 10 µM [30]: > 40% | inhibition at 10 µM [31]: > 40% | Sensitive cell lines no. [32]: 42 | mean % GI ([32]; mean over NCI panel): 22%

CCOC(=O)c1ccc(NC(=O)Nc2ccc(-c3ccc(F)cc3)nc2C)cc1 [Compound 5c, Ethyl 4-(3-(6-(4-fluorophenyl)-2-methylpyridin-3-yl)ureido)benzoate]
melting point: 209 to 211 °C | inhibition at 10 µM [1]: 12% | inhibition at 10 µM [2]: < 10% | inhibition at 10 µM [3]: 13% | inhibition at 10 µM [4]: < 10% | inhibition at 10 µM [5]: < 10% | inhibition at 10 µM [6]: 29% | inhibition at 10 µM [7]: < 10% | inhibition at 10 µM [8]: < 10% | inhibition at 10 µM [9]: 18% | inhibition at 10 µM [10]: < 10% | inhibition at 10 µM [11]: < 10% | inhibition at 10 µM [12]: 38% | inhibition at 10 µM [13]: < 10% | inhibition at 10 µM [14]: < 10% | inhibition at 10 µM [15]: < 10% | inhibition at 10 µM [16]: < 10% | inhibition at 10 µM [17]: < 10% | inhibition at 10 µM [18]: < 10% | inhibition at 10 µM [19]: 29% | inhibition at 10 µM [20]: 24% | inhibition at 10 µM [21]: 20% | inhibition at 10 µM [22]: < 10% | inhibition at 10 µM [23]: 24% | inhibition at 10 µM [24]: < 10% | inhibition at 10 µM [25]: < 10% | inhibition at 10 µM [26]: < 10% | inhibition at 10 µM [27]: < 10% | inhibition at 10 µM [28]: < 10% | inhibition at 10 µM [29]: < 10% | inhibition at 10 µM [30]: 13% | inhibition at 10 µM [31]: 16% | Sensitive cell lines no. [32]: 13

Cc1nc(-c2ccc(F)cc2)ccc1NC(=O)Nc1ccc2c(c1)OCO2 [Compound 5d, 1-(Benzo[d][1, 3]dioxol-5-yl)-3-(6-(4-fluorophenyl)-2-methylpyridin-3-yl)urea]
melting point: 254 to 256 °C | inhibition at 10 µM [1]: < 10% | inhibition at 10 µM [2]: < 10% | inhibition at 10 µM [3]: < 10% | inhibition at 10 µM [4]: < 10% | inhibition at 10 µM [5]: < 10% | inhibition at 10 µM [6]: 15% | inhibition at 10 µM [7]: < 10% | inhibition at 10 µM [8]: < 10% | inhibition at 10 µM [9]: 14% | inhibition at 10 µM [10]: < 10% | inhibition at 10 µM [11]: < 10% | inhibition at 10 µM [12]: 19% | inhibition at 10 µM [13]: < 10% | inhibition at 10 µM [14]: < 10% | inhibition at 10 µM [15]: < 10% | inhibition at 10 µM [16]: < 10% | inhibition at 10 µM [17]: < 10% | inhibition at 10 µM [18]: < 10% | inhibition at 10 µM [19]: 20% | inhibition at 10 µM [20]: 45% | inhibition at 10 µM [21]: < 10% | inhibition at 10 µM [22]: < 10% | inhibition at 10 µM [23]: 34% | inhibition at 10 µM [24]: < 10% | inhibition at 10 µM [25]: < 10% | inhibition at 10 µM [26]: < 10% | inhibition at 10 µM [27]: < 10% | inhibition at 10 µM [28]: < 10% | inhibition at 10 µM [29]: < 10% | inhibition at 10 µM [30]: < 10% | inhibition at 10 µM [31]: 11% | Sensitive cell lines no. [32]: 12
